Assays:
[1] = test system: neutrophils; assay: PGD2-induced neutrophils migration, Boyden chamber assay (Example 1); format: cell-based, mice; settings: pretreatment CT-NA 1 and 10 μM (p<0.01) or OC459; PGD2 1 μM; 4 hrs
Protocol: The mice were intragastrically administered glycogen (1.5%) at the dose range of 20 ml/kg of body weight. 4 hrs later, the mice were euthanized to isolate neutrophils from the peritoneal lavage. The effect of CT-NA on neutrophils migration was detected by using the Boyden chamber assay kit (3 μm pore size). PGD2 was used as a chemoattractant because the activated PGD2/CRTH2 receptors promoted the migration of neutrophils. Initially, the isolated neutrophils (4×10^5) were diluted in 100 μL HBSS and allowed to migrate toward PGD2 (0.1, 1 and 10 μM) for 4 hrs to find out the suitable PGD2 concentration. Then, the isolated neutrophils (4×10^5) were pretreated with CT-NA (1 and 10 μM), and their migration to PGD2 (1 μM) was evaluated by counting the migrated neutrophils. Moreover, another potent CRTH2 inhibitor OC459 was used to countercheck the outcomes of CT-NA.

[2] = test system: LPS-induced ALI mice; assay: LPS-induced ALI model: pulmonary vascular permeability by Evans blue dye; format: in vivo, Balb/c mice; settings: CT-NA 10 mg/kg (P<0.05) or 30 mg/kg (P<0.01), Dex 1 mg/kg (P<0.01)
Protocol: Evans Blue was a dye that could quickly bind to albumin and was remains restricted within blood vessels because the endothelium was impermeable to albumin under normal physiological conditions. Pulmonary microvascular permeability was assessed by measuring the extravasation of Evans blue dye in the lungs. The method was briefly described as follows. The mice were randomly divided into control group (12 mice) and LPS group (48 mice). The LPS group (48 mice) was further divided into four subgroups (each subgroup contains 12 mice). To measure pulmonary microvascular permeability, the unanaesthetized mice of LPS group received intragastric instillation of NS, CT-NA at 10 mg/kg or 30 mg/kg, or Dex at 1 mg/kg respectively. One hour later, the anaesthetized mice were intratracheally instilled with NS (control group) and LPS (all LPS subgroups) at 10 μl/10 g of body weight. […] And then the absorbance of the Evans blue dye extracted in the supernatant was measured against formamide blank at 620 nm via standard curve method, and expressed as microgram of dye per 100 mg of wet lung weight. In addition, the concentration of albumin in BALF was measured at 628 nm using a spectrophotometer and an albumin measurement kit. The albumin concentration ratio assessed from BALF represented not only the albumin level but also the permeability of the pulmonary microvascular.

[3] = test system: LPS-induced ALI mice; assay: LPS-induced ALI model: lung weight coefficient; format: in vivo, Balb/c mice; settings: CT-NA 10 or 30 mg/kg (P<0.01, dose-dependent), Dex 1 mg/kg; 24 hrs after LPS
Protocol: Specific pathogen-free (SPF) Balb/c mice (♂/♀; 20-26 g; 8 weeks old) were purchased from Shanghai SIPPR-BK Experimental Animal Co., Ltd. Mice were kept in an isolated ventilated cage in an environment of 40-60% humidity, 24±2° C., and 12 hrs/12 hrs dark-light cycle, and had free access to food and water. The method for preparing the LPS-induced ALI model was simply described as follows. The mice were randomly divided into a control group (12 mice) and an LPS group (48 mice). The LPS group (48 mice) was further divided into four subgroups (12 mice in each subgroup). […] 24 hrs after LPS challenge, the oxygen saturation (SO2) of all mice was measured by a Moor VMS-OXY™ instrument which measured SO2 (%) in the microcirculation at the wavelength range of 500 to 650 nm. […]
The mice were euthanized to expose the trachea, and then the right lungs were lavaged three times with 0.4 mL/time of sterile normal saline containing bovine serum albumin (BSA) and 5000 IU/L heparin to collect the BALF via tracheal tube. […] The removed lung tissues were weighted after aspirating the surface blood, and the lung weight coefficient was calculated. The lung weight coefficient was an indicator of pulmonary edema, and it was measured by dividing the individual lung weight of each mouse by its total body weight.

In the case of `CN([C@@H]1CCc2c(CC(=O)[O-])c3cccnc3n2C1)S(=O)(=O)c1ccc(F)cc1.[Na+]` [Sodium salt hydrate], the PGD2-induced neutrophils migration [1] is reported as “significantly attenuated”, the “LPS-induced pulmonary vascular leakage and extravasation of Evans Blue dye” value [2] is reported as “significantly reduced” and the “lung wet weight coefficient” value [3] is reported as “notably reduced”.

— patent US20220098197A1, “SALTS OF HETEROCYCLIC COMPOUND AND USE THEREOF” (priority 2019, published 2022)
